According to patent publication US20090170846A1, “INHIBITORS OF THE HIV INTEGRASE ENZYME” (Pfizer Inc, priority 2005, published 2009):
Where two headings read alike, the source gives them in different places.

Tests used:
[1] = test system: RF strain of HIV-1 in CEM-SS cells; assay: HIV-1 cell protection assay (XTT dye reduction); format: cell-based
Experimental: HIV-1 Cell Protection Assay
The antiviral activities of potential modulator compounds (test compounds) were determined in HIV-1 cell protection assays using the RF strain of HIV-1, CEM-SS cells, and the XTT dye reduction method (Weislow, O, S. et al., J. Natl. Cancer Inst 81: 577-586 (1989)). Subject cells were infected with HIV-1 RF virus at an moi of to affect about a 90% kill (for example, an moi in the range of from about 0.025 to about 0.819) or mock infected with medium only and added at 2×10^4 cells per well, with the addition of approximately 200 μL of medium, into 96 well plates containing half-log dilutions of test compounds. Six days later, 50 μl of XTT solution (1 mg/ml XTT tetrazolium and 20 nM phenazine methosulfate) were added to the wells and the plates were reincubated for four hours. Viability, as determined by the amount of XTT formazan produced, was quantified spectrophotometrically by absorbance at 450 nm.
Data from CPE assays were expressed as the percent of formazan produced in compound-treated cells compared to formazan produced in wells of uninfected, compound-free cells. The fifty percent effective concentration (EC50) was calculated as the concentration of compound that affected an increase in the percentage of formazan production in infected, compound-treated cells to 50% of that produced by uninfected, compound-free cells. The 50% cytotoxicity concentration (CC50) was calculated as the concentration of compound that decreased the percentage of formazan produced in uninfected, compound-treated cells to 50% of that produced in uninfected, compound-free cells. The therapeutic index was calculated by dividing the cytotoxicity (CC50) by the antiviral activity (EC50).

[2] = target: T1, Full-length wild type HIV-1 integrase (SF1) (Human immunodeficiency virus type 1 group M subtype B, UniProt P04585); assay: Integrase strand-transfer scintillation proximity assay; format: biochemical
T1 construct: made in house; host or cells: E. coli BL21 (DE3)
Source text: Integrase Strand-Transfer Scintillation Proximity Assay
Oligonucleotides: Oligonucleotide #1-5′-(biotin)[…]-3′ (SEQ ID NO: 1) and oligonucleotide #2-5′-[…]-3′ (SEQ ID NO: 2), were synthesized by TriLink BioTechnologies, Inc. (San Diego, Calif.). The annealed product represents preprocessed viral ds-DNA derived from the LTR U5 sequence of the viral genome. A ds-DNA control to test for non-specific interactions was made using a 3′ di-deoxy derivative of oligonucleotide #1 annealed to oligonucleotide #2. The CA overhang at the 5′ end of the non-biotinylated strand of the ds-DNA was created artificially by using a complimentary DNA oligonucleotide shortened by 2 base pairs. This configuration eliminates the requisite 3′ processing step of the integrase enzyme prior to the strand-transfer mechanism.
Host ds-DNA was prepared as an unlabeled and [^3H]-thymidine labeled product from annealed oligonucleotide #3-5-[…]-3′ (SEQ ID NO: 3), and oligonucleotide #4-1-5′-[…]-3′ (SEQ ID NO: 4), both synthesized by TriLink BioTechnologies, Inc. (San Diego, Calif.). The annealed product had overhanging 3′ ends of poly(dA). Host DNA was custom radiolabeled by PerkinElmer Life Sciences Inc. (Boston, Mass.) using an enzymatic method with a 12/1 ratio of [methyl-^3H]dTTP/cold ds-DNA to yield 5′-blunt end ds-DNA with a specific activity of >900 Ci/mmol. The radiolabeled product was purified using a NENSORB cartridge and stored in stabilized aqueous solution (PerkinElmer). The final radiolabeled product had six [^3H]-thymidine nucleotides at both 5′ ends of the host ds-DNA.
Reagents: Streptavidin-coated polyvinyltoluene (PVT) SPA beads were purchased from Amersham Biosciences (Piscataway, N.J.). Cesium chloride was purchased from Shelton Scientific, Inc. (Shelton, Conn.). White, polystyrene, flat-bottom, non-binding surface, 96-well plates were purchased from Corning. All other buffer components were purchased from Sigma (St. Louis, Mo.) unless otherwise indicated.
Enzyme Construction Full-length wild type HIV-1 integrase (SF1) sequence (amino acids 1-289) was constructed in a pET24a vector (Novagen, Madison, Wis.). The construct was confirmed through DNA sequencing.
Enzyme Purification Full length wild-type HIV Integrase was expressed in E. coli BL21 (DE3) cells and induced with 1 mM isopropyl-1 thio-β-D-galactopyranoside (IPTG) when cells reached an optical density between 0.8-1.0 at 600 nm. Cells were lysed by microfluidation in 50 mM HEPES pH 7.0, 75 mM NaCl, 5 mM DTT, 1 mM 4-(2-Aminoethyl)benzenesulfonylfluoride HCl (AEBSF). Lysate was then centrifuged 20 minutes at 11 k rpm in GSA rotor in Sorvall RC-5B at 4° C. Supernant was discarded and pellet resuspended in 50 mM HEPES pH 7.0, 750 mM NaCl, 5 mM DTT, 1 mM AEBSF and homogenized in a 40 mL Dounce homogenizer for 20 minutes on ice. Homogenate was then centrifuged 20 minutes at 11 k rpm in SS34 rotor in Sorvall RC-5B at 4° C. Supernant was discarded and pellet resuspended in 50 mM HEPES pH 7.0, 750 mM NaCl, 25 mM CHAPS, 5 mM DTT, 1 mM AEBSF. Preparation was then centrifuged 20 minutes at 11 k rpm in SS34 rotor in Sorvall RC-5B at 4° C.
Supernant was then diluted 1:1 with 50 mM HEPES pH 7.0, 25 mM CHAPS, 1 mM DTT, 1 mM AEBSF and loaded onto a Q-Sepharose column pre-equilibrated with 50 mM HEPES, pH 7.0, 375 mM NaCl, 25 mM CHAPS, 1 mM DTT, 1 mM AEBSF. The flow through peak was collected and NaCl diluted to 0.1 M with 50 mM HEPES pH 7.0, 25 mM CHAPS, 1 mM DTT, 0.5 mM AEBSF and loaded onto a SP-Sepharose column pre-equilibrated with 50 mM HEPES pH 7.0, 100 mM NaCl, 25 mM CHAPS, 1 mM DTT, 0.5 mM AEBSF. After washing the column with the equilibration buffer, a 100 to 400 mM NaCl gradient was run. The eluted integrase was concentrated and run on a S-300 gel diffusion column using 50 mM HEPES pH 7.0, 500 mM NaCl, 25 mM CHAPS, 1 mM DTT, 0.5 mM AEBSF. The peak from this column was concentrated to 0.76 mg/mL and stored at −70° C. and later used for strand transfer assays. […]

[3] = Human immunodeficiency virus 1, CEM-SS, 144 h
[4] = integrase strand-transfer SPA, read-out: IC50
[5] = Human immunodeficiency virus 1, 144 h, HIV-1 RF, CEM-SS cells, XTT, six days, read-out: EC50

SMILES | EC50 [1, 3] [nM] | IC50 [2, 4] [nM] | EC50 [1, 5] [nM] | IC50 [2] [nM]
O=C(NO)c1cc2c(C(=O)NCC34CCCN3CCC4)cn(Cc3ccc(F)cc3)c2cn1 [Example 25, 1-(4-fluorobenzyl)-N~5~- hydroxy-N~3~-(tetrahydro-1H-pyrrolizin-7a(5H)-ylmethyl)-1H-pyrrolo[2,3-c]pyridine-3,5-dicarboxamide] | 250 | 152 |  | 
CONC(=O)c1cc2c(S(=O)(=O)N3CCNC(=O)C3)cn(Cc3ccc(F)cc3F)c2cn1 [Example 39, 1-(2,4-difluorobenzyl)-N-methoxy-3-[(3-oxopiperazin-1-yl)sulfonyl]-1H-pyrrolo[2,3-c]pyridine-5-carboxamide] |  | 299 | 210 | 
CONC(=O)c1cc2c(C(=O)N3CCC[C@H]3CO)cn(Cc3ccc(F)cc3)c2cn1 [Example 10, 1-(4-fluorobenzyl)-3-{[(2S)-2-(hydroxymethyl)pyrrolidin-1-yl]carbonyl}-N-methoxy-1H-pyrrolo[2,3-c]pyridine-5-carboxamide] | 40 | 1140 |  | 
CN(O)C(=O)c1cc2c(S(=O)(=O)N3CCNC(=O)C3)cn(Cc3ccc(F)cc3F)c2cn1 [Example 41, 1-(2,4-difluorobenzyl)-N-hydroxy-N-methyl-3-[(3-oxopiperazin-1-yl)sulfonyl]-1H-pyrrolo[2,3-c]pyridine-5-carboxamide] |  |  | 3300 | 1150
O=C(NO)c1cc2c(NS(=O)(=O)c3ccc(Cl)s3)cn(Cc3ccc(F)cc3)c2cn1 [Example 21, 3-{[(5-chloro-2-thienyl)sulfonyl]amino}-1-(4-fluorobenzyl)-N-hydroxy-1H-pyrrolo[2,3-c]pyridine-5-carboxamide] |  | 102 | 71 | 
O=C(NO)c1cc2c(C(=O)NCCN3CCOCC3)cn(Cc3ccc(F)cc3)c2cn1 [Example 27, 1-(4-fluorobenzyl)-N~5~- hydroxy-N~3~-(2-morpholin-4-ylethyl)-1H-pyrrolo[2,3-c]pyridine-3,5-dicarboxamide] | 38 | 76 |  | 
CC(=O)Nc1cn(Cc2ccc(F)cc2)c2cnc(C(=O)NO)cc12 [Example 1, 3-(acetylamino)-1-(4-fluorobenzyl)-N-hydroxy-1H-pyrrolo[2,3-c]pyridine-5-carboxamide] |  | 130 | 11 | 
Cc1c(CNC(=O)c2cn(Cc3ccc(F)cc3)c3cnc(C(=O)N(C)O)cc23)cnn1C [Example 17, N~3~-[(1,5-dimethyl-1H-pyrazol-4-yl)methyl]-1-(4-fluorobenzyl)-N~5~- hydroxy-N~5~-methyl-1H-pyrrolo[2,3-c]pyridine-3,5-dicarboxamide] | 110 | 168 |  | 
CN(O)C(=O)c1cc2c(C(=O)N3CCCC(CO)C3)cn(Cc3ccc(F)cc3)c2cn1 (stereo not drawn) [Example 33] | 140 | 320 |  | 
CN(O)C(=O)c1cc2c(C(=O)NC(CC(=O)NC3CC3)C3CC3)cn(Cc3ccc(F)cc3)c2cn1 (stereo not drawn) [Example 18, N~3~-[1-cyclopropyl-3-(cyclopropylamino)-3-oxopropyl]-1-(4-fluorobenzyl)-N~5~- hydroxy-N~5~-methyl-1H-pyrrolo[2,3-c]pyridine-3,5-dicarboxamide] | 460 | 230 |  | 
O=C1CN(S(=O)(=O)c2cn(Cc3ccc(F)cc3F)c3cnc(C(=O)NO)cc23)CCN1 [Example 38, 1-(2,4-difluorobenzyl)-N-hydroxy-3-[(3-oxopiperazin-1-yl)sulfonyl]-1H-pyrrolo[2,3-c]pyridine-5-carboxamide] |  | 265 | 8000 | 
O=C(NO)c1cc2c(NS(=O)(=O)c3ccccc3)cn(Cc3ccc(F)cc3)c2cn1 [Example 3, 1-(4-fluorobenzyl)-N-hydroxy-3-[(phenylsulfonyl)amino]-1H-pyrrolo[2,3-c]pyridine-5-carboxamide] |  |  | 21 | 40.5
O=C(NO)c1cc2c(NS(=O)(=O)Cc3ccccc3)cn(Cc3ccc(F)cc3)c2cn1 [Example 19, 3-[(benzylsulfonyl)amino]-1-(4-fluorobenzyl)-N-hydroxy-1H-pyrrolo[2,3-c]pyridine-5-carboxamide] |  | 105 | 18 | 
CONC(=O)c1cc2c(C(=O)N3CCC[C@@H]3CO)cn(Cc3ccc(F)cc3)c2cn1 [Example 46] | 56 | 895 |  | 
CN(O)C(=O)c1cc2c(C(=O)NCCN3CCOCC3)cn(Cc3ccc(F)cc3)c2cn1 [Example 32, 1-(4-fluorobenzyl)-N~5~- hydroxy-N~5~-methyl-N~3~-(2-morpholin-4-ylethyl)-1H-pyrrolo[2,3-c]pyridine-3,5-dicarboxamide] | 210 | 503 |  | 
CCN1CCCC1CNC(=O)c1cn(Cc2ccc(F)cc2)c2cnc(C(=O)NO)cc12 (stereo not drawn) [Example 31, N~3~-[(1-ethylpyrrolidin-2-yl)methyl]-1-(4-fluorobenzyl)-N~5~- hydroxy-1H-pryyolo[2,3-c]pyridine-3,5-dicarboxamide] | 200 | 141 |  | 
CONC(=O)c1cc2c(C(=O)NCCN3CCOCC3)cn(Cc3ccc(F)cc3)c2cn1 [Example 7, 1-(4-fluorobenzyl)-N~5~- methoxy-N~3~-(2-morpholin-4-ylethyl)-1H-pyrrolo[2,3-c]pyridine-3,5-dicarboxamide] | 62 | 550 |  | 
O=C(NO)c1cc2c(C(=O)NCCCN3CCCC3=O)cn(Cc3ccc(F)cc3)c2cn1 [Example 29, 1-(4-fluorobenzyl)-N~5~- hydroxy-N~3~-[3-(2-oxopyrrolidin-1-yl)propyl]-1H-pyrrolo[2,3-c]pyridine-3,5-dicarboxamide] | 130 | 70 |  | 
